Laboratory results as given in patent US7803801B2, “Aminopyridine compounds having Syk inhibitory activity” (Japan Tobacco, Inc., priority 2005, dated 2010).
Counter-ions that a name gives are not always drawn.

molecular target: GST-Syk Full Protein (human) (Homo sapiens, UniProt P43405); experiment: Syk kinase inhibition test (HTRF method); format: biochemical; details: HTRF, 100 μM ATP, 30 min room temperature, average; read-out: sykHTRF ave IC50
Protocol: Syk Kinase Inhibition Test (HTRF Method)
After the compounds were serially diluted with dimethylsulfoxide (DMSO), 10 μL of those 10-fold diluted with kinase buffer (20 mM HEPES pH 7.0, 10 mM MgCl2, 50 mM NaCl, 1 mM 2-ME, 0.05% BSA) was added to opti-plate HTRF-96 (Packard) (final DMSO concentration: 2%). 20 μL of a substrate solution (kinase buffer as mentioned above containing Syk Specific-Peptide Substrate Biot-EDPDYEWPSA-NH2 (Peptide Laboratory) 625 nM, 250 μM ATP (SIGMA) was added (final substrate concentration 250 nM, 100 μM ATP), and further 20 μL of an enzyme solution (kinase buffer as mentioned above containing GST-Syk Full Protein (human) 16 nM) (final concentration 6.4 nM) was added and the mixture was immediately stirred with a plate shaker to start enzyme reaction. After reacted at room temperature (20 to 25° C.) for 30 minutes, the enzyme reaction was terminated by adding 100 μL/well of a buffer for terminating and detecting the reaction (30 mM HEPES pH 7.0, 150 mM KF, 0.15% BSA, 0.075% Tween-20, 75 mM EDTA) containing HTRF reagent (5 μg/ml XL665-Streptavidin (CIS bio), 170 ng/ml Eu(K)-anti-PhosphoTyrosin, PT-66 (CIS bio)) (final concentration 20 mM HEPES pH 7.0, 100 mM KF, 0.1% BSA, 0.05% Tween-20, 50 mM EDTA). After allowed to stand still at room temperature for 1 hour, inhibitory effect of a compound against Syk kinase enzymatic activity was evaluated by measuring 665/620 fluorescence ratio to excitation light at 337 nm by ARVO (Wallac).

IC50 | Structure (SMILES)
> 1000 nM | Cc1cccnc1Nc1cccc(-c2cnc([C@H](C)O)s2)n1 [Compound A-327]

same assay, conditions: Tables 1-x, compounds A; read-out: sykHTRF ave IC50

Structure (SMILES) | IC50
O=C(O)CC1CCN(c2ncc(-c3cccc(Nc4cc(OCC(F)(F)F)ccn4)n3)s2)CC1 [Compound A-700, [1-(5-{6-[4-(2,2,2-trifluoroethoxy)pyridin-2-ylamino]pyridin-2-yl}thiazol-2-yl)piperidin-4-yl]acetic acid dihydrochloride] | < 100 nM
CC(C)(C(=O)O)C1CCN(c2ncc(-c3cccc(Nc4ccccn4)n3)s2)CC1 [Compound A-714, 2-methyl-2-(1-{5-[6-(pyridin-2-ylamino)pyridin-2-yl]thiazol-2-yl}piperidin-4-yl)propionic acid] | < 100 nM
CC(=O)NCCN(c1ncc(-c2cccc(Nc3cc(C)ccn3)n2)s1)C1CCN(C(C)=O)CC1 [Compound A-521] | 100 to 1000 nM
Cc1ccnc(Nc2cccc(-c3cnc(N4CCC(CC(C)(C)O)CC4)s3)n2)c1 [Compound A-670] | 100 to 1000 nM
Cc1ccnc(Nc2cccc(-c3cnc(N4CCC(C(=O)N(C)CCO)CC4)s3)n2)c1 [Compound A-448] | 100 to 1000 nM
Cc1ccnc(Nc2cccc(-c3cnc(NCCN4CCOCC4)s3)n2)c1 [Compound A-695, N-{5-[6-(4-methylpyridin-2-ylamino)pyridin-2-yl]thiazol-2-yl}-N-(2-morpholin-4-ylethyl)amine] | < 100 nM
COC(=O)NCCN(c1ncc(-c2cccc(Nc3cc(C)ccn3)n2)s1)C1CCN(C(C)=O)CC1 [Compound A-522] | 100 to 1000 nM
CC(C)(C(=O)O)C1CCN(c2ncc(-c3cccc(Nc4cc(CCO)ccn4)n3)s2)CC1 [Compound A-713, 2-[1-(5-{6-[4-(2-hydroxyethyl)pyridin-2-ylamino]pyridin-2-yl}thiazol-2-yl)piperidin-4-yl]-2-methylpropionic acid] | < 100 nM
O=C(O)CCC1CCN(c2ncc(-c3cccc(Nc4ccccn4)n3)s2)CC1 [Compound A-682] | 100 to 1000 nM
O=C(O)C(F)C1CCN(c2ncc(-c3cccc(Nc4ccccn4)n3)s2)CC1 (stereo not drawn) [Compound A-716, fluoro-(1-{5-[6-(pyridin-2-ylamino)pyridin-2-yl]thiazol-2-yl}piperidin-4-yl)acetic acid dihydrochloride] | < 100 nM
CNC(=O)C1CCN(Cc2ncc(-c3cccc(Nc4cc(C)ccn4)n3)s2)CC1 [Compound A-686] | 100 to 1000 nM
O=C(O)Cc1ccnc(Nc2cccc(-c3cnc(N4CC[C@@H](O)C4)s3)n2)c1 [Compound A-557] | 100 to 1000 nM
Cc1ccnc(Nc2cccc(-c3cnc(N4CCC[C@H]4C(=O)N[C@@H](C)C(=O)O)s3)n2)c1 [Compound A-566] | 100 to 1000 nM
CC(=CC(=O)O)CCCN(C)c1ncc(-c2cccc(Nc3cc(C)ccn3)n2)s1 [Compound A-656, 3-methyl-6-(N-methyl-N-{5-[6-(4-methylpyridin-2-ylamino)pyridin-2-yl]thiazol-2-yl}amino)hex-2-enoic acid dihydrochloride] | < 100 nM
Cc1ccnc(Nc2cccc(-c3cnc(N(C)C4CCN(C(=O)NCCO)CC4)s3)n2)c1 [Compound A-705, N-(2-hydroxyethyl)-4-(N′-methyl-N′-{5-[6-(4-methylpyridin-2-ylamino)pyridin-2-yl]thiazol-2-yl}amino)piperidine-1-carboxamide] | < 100 nM
Cc1ccnc(Nc2cccc(-c3cnc(N(CC(=O)NCC(F)(F)F)C4CCCCC4)s3)n2)c1 [Compound A-665] | 100 to 1000 nM

Next, values leading:

IC50 | Structure (SMILES)
< 100 nM | CNC(=O)C1CCC(N(C)c2ncc(-c3cccc(Nc4cc(C)ccn4)n3)s2)CC1 (stereo not drawn) [Compound A-492, N-methyl-4-(N′-methyl-N′-{5-[6-(4-methylpyridin-2-ylamino)pyridin-2-yl]thiazol-2-yl}amino)cyclohexanecarboxamide]
< 100 nM | Cc1ccnc(Nc2cccc(-c3cnc(N4CCC(C(=O)N5CCNC(=O)C5)CC4)s3)n2)c1 [Compound A-453, 4-(1-{5-[6-(4-methylpyridin-2-ylamino)pyridin-2-yl]thiazol-2-yl}piperidine-4-carbonyl)piperazin-2-one]
< 100 nM | Cc1ccnc(Nc2cccc(-c3cnc(N4CCC(CC(=O)NS(C)(=O)=O)CC4)s3)n2)c1 [Compound A-633, N-[2-(1-{5-[6-(4-methylpyridin-2-ylamino)pyridin-2-yl]thiazol-2-yl}piperidin-4-yl)acetyl]methanesulfonamide]
< 100 nM | Cc1ccnc(Nc2cccc(-c3cnc(N4CCC(C(F)C(=O)O)CC4)s3)n2)c1 (stereo not drawn) [Compound A-684, fluoro-(1-{5-[6-(4-methylpyridin-2-ylamino)pyridin-2-yl]thiazol-2-yl}piperidin-4-yl)acetic acid]
< 100 nM | COc1ccnc(Nc2cccc(-c3cnc(N4CCC(CC(=O)O)CC4)s3)n2)c1 [Compound A-637, (1-{5-[6-(4-methoxypyridin-2-ylamino)pyridin-2-yl]thiazol-2-yl}piperidin-4-yl)acetic acid dihydrochloride]
100 to 1000 nM | CN(CCO)c1ncc(-c2cccc(Nc3ccccn3)n2)s1 [Compound A-706]
< 100 nM | CC(=CC(=O)O)CCCN(C)c1ncc(-c2cccc(Nc3cc(C(F)(F)F)ccn3)n2)s1 [Compound A-655, 3-methyl-6-(N-methyl-N-{5-[6-(4-trifluoromethylpyridin-2-ylamino)pyridin-2-yl]thiazol-2-yl}amino)hex-2-enoic acid dihydrochloride]
100 to 1000 nM | Cc1ccnc(Nc2cccc(-c3cnc(N(C)C4CCN(C(=O)N5CCC(O)CC5)CC4)s3)n2)c1 [Compound A-703]
< 100 nM | Cc1ccnc(Nc2cccc(-c3cnc(N4CCC(=C(F)C(=O)O)CC4)s3)n2)c1 [Compound A-631, fluoro-(1-{5-[6-(4-methylpyridin-2-ylamino)pyridin-2-yl]thiazol-2-yl}piperidin-4-ylidene)acetic acid]
< 100 nM | Cc1ccnc(Nc2cccc(-c3cnc(N4CCCC(CCCCC(=O)O)C4)s3)n2)c1 (stereo not drawn) [Compound A-719, 5-(1-{5-[6-(4-methylpyridin-2-ylamino)pyridin-2-yl]thiazol-2-yl}piperidin-3-yl)pentanoic acid dihydrochloride]
< 100 nM | Cc1ccnc(Nc2cccc(-c3cnc(NC(C)C)s3)n2)c1 [Compound A-693, N-isopropyl-N-{5-[6-(4-methylpyridin-2-ylamino)pyridin-2-yl]thiazol-2-yl}amine]
< 100 nM | Cc1ccnc(Nc2cccc(-c3cnc(N4CCC[C@@H](c5nnn[nH]5)C4)s3)n2)c1 [Compound A-590, N-(4-methylpyridin-2-yl)-N-(6-{2-[(R)-3-(1H-tetrazol-5-yl)piperidin-1-yl]thiazol-5-yl}pyridin-2-yl)amine]
< 100 nM | Cc1ccnc(Nc2cccc(-c3cnc(N4CCC(C(C)(C)C(=O)O)CC4)s3)n2)c1 [Compound A-718, 2-methyl-2-(1-{5-[6-(4-methylpyridin-2-ylamino)pyridin-2-yl]thiazol-2-yl}piperidin-4-yl)propionic acid dihydrochloride]

same assay, conditions: Tables 2-x, thiophene compounds B; read-out: sykHTRK ave IC50

IC50 | Structure (SMILES)
100 to 1000 nM | Cc1ccnc(Nc2cccc(-c3ccc(CN(C)C(=O)c4ccc(C(=O)O)cc4)s3)n2)c1 [Compound B-125]
100 to 1000 nM | Cc1ccnc(Nc2cccc(-c3ccc(C(=O)N4CCC(CC(=O)O)CC4)s3)n2)c1 [Compound B-113]
< 100 nM | CC(=O)N(Cc1ccc(C(=O)O)cc1)Cc1ccc(-c2cccc(Nc3cc(C)ccn3)n2)s1 [Compound B-119, 4-[(N-acetyl-N-{5-[6-(4-methylpyridin-2-ylamino)pyridin-2-yl]thiophen-2-ylmethyl}amino)methyl]benzoic acid]
